# Measurements as given in ChEMBL document CHEMBL5233215, “Recent developments of chalcones as potential antibacterial agents in medicinal chemistry” (Eur J Med Chem, 2020).
# Experiments:
# Type in all cases: functional
# Staphylococcus aureus [1] = test: Antibacterial activity methicillin-resistant Staphylococcus aureus P4423 assessed as inhibition of bacterial growth by microdilution broth method
# Staphylococcus aureus [2] = test: Antibacterial activity methicillin-resistant Staphylococcus aureus P4627 assessed as inhibition of bacterial growth by microdilution broth method
# Staphylococcus aureus [3] = test: Antibacterial activity methicillin-resistant Staphylococcus aureus P4620 assessed as inhibition of bacterial growth by microdilution broth method
# Staphylococcus aureus [4] = test: Antibacterial activity methicillin-resistant Staphylococcus aureus B10760 assessed as inhibition of bacterial growth by microdilution broth method
# Staphylococcus aureus [5] = test: Antibacterial activity methicillin-resistant Staphylococcus aureus ST3151 assessed as inhibition of bacterial growth by microdilution broth method
# Staphylococcus aureus [6] = test: Antibacterial activity methicillin-resistant Staphylococcus aureus USA300 assessed as inhibition of bacterial growth by CLSI based microbroth dilution assay
# Bacillus anthracis = test: Antibacterial activity Bacillus anthracis Sterne 34F2 assessed as inhibition of bacterial growth by CLSI based microbroth dilution assay
# Enterococcus faecalis = test: Antibacterial activity Enterococcus faecalis ATCC 33186 assessed as inhibition of bacterial growth by CLSI based microbroth dilution assay
# Staphylococcus aureus [7] = test: Antibacterial activity Staphylococcus aureus ATCC 6538 assessed as inhibition of bacterial growth incubated for 24 hrs by broth microdilution method
# Listeria monocytogenes = test: Antibacterial activity Listeria monocytogenes ATCC 7644 assessed as inhibition of bacterial growth incubated for 24 hrs by broth microdilution method
# Staphylococcus aureus [8] = test: Antibacterial activity Staphylococcus aureus ATCC 588 assessed as inhibition of bacterial growth incubated for 24 hrs by broth microdilution method
smiles,measurement,setting,value
O=C(/C=C/c1ccc(O)cc1)c1ccc2c(c1O)CN(Cc1cc(C(F)(F)F)ccc1Cl)CO2,MIC,Staphylococcus aureus [1],25 µg/mL
same,MIC,Staphylococcus aureus [2],25 µg/mL
same,MIC,Staphylococcus aureus [3],25 µg/mL
same,MIC,Staphylococcus aureus [4],25 µg/mL
same,MIC,Staphylococcus aureus [5],25 µg/mL
Cc1cc(C(=O)CC(Sc2ccc(Cl)cc2)c2ccc(Cl)cc2)ccc1O (stereo unspecified),MIC,Staphylococcus aureus [6],0.78 µg/mL
same,MIC,Bacillus anthracis,3.12 µg/mL
same,MIC,Enterococcus faecalis,1.56 µg/mL
O=C(CCc1ccc(O)cc1)c1c(O)cc(O)cc1O [PHLORETIN],MIC,Staphylococcus aureus [7],7.81 µg/mL
same,MIC,Listeria monocytogenes,62.5 µg/mL
same,MIC,Staphylococcus aureus [8],7.81 µg/mL
